# From ChEMBL document CHEMBL1201862, “PubChem BioAssay data set” (2004)
#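 Protocol summary: plate cells (96-well), add compound at 5 concentrations, incubate 48 h, interpolate endpoints linearly. The concentration for 50% growth inhibition is given as GI50.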 Active and inactive are the calls of the source. Rule as the data show it: active = GI50 up to about 1.1 µM and inactive = higher.
# Columns and labels:
# Experiment in all cases: NCI-60 cell line screen, 48 h
# SK-OV-3 = tested on: SK-OV-3
# HOP-62 = tested on: HOP-62
# MOLT-4 = tested on: MOLT-4
# CCRF-CEM = tested on: CCRF-CEM
# UACC-257 = tested on: UACC-257
# SF-268 = tested on: SF-268
# TK-10 = tested on: TK-10
# SNB-19 = tested on: SNB-19
# NCI/ADR-RES = tested on: NCI/ADR-RES
# CAKI-1 = tested on: CAKI-1
# SK-MEL-2 = tested on: SK-MEL-2
# HL-60 = tested on: HL-60
# 786-0 = tested on: 786-0
# M14 = tested on: M14
# K562 = tested on: K562
# SF-539 = tested on: SF-539
# OVCAR-3 = tested on: OVCAR-3
# SK-MEL-5 = tested on: SK-MEL-5
# HT-29 = tested on: HT-29
# RXF 393 = tested on: RXF 393
SMILES,GI50 (SK-OV-3),GI50 (HOP-62),GI50 (MOLT-4),GI50 (CCRF-CEM),GI50 (UACC-257),GI50 (SF-268),GI50 (TK-10),GI50 (SNB-19),GI50 (NCI/ADR-RES),GI50 (CAKI-1),GI50 (SK-MEL-2),GI50 (HL-60),GI50 (786-0),GI50 (M14),GI50 (K562),GI50 (SF-539),GI50 (OVCAR-3),GI50 (SK-MEL-5),GI50 (HT-29),GI50 (RXF 393)
Clc1ccc(COC(Cn2ccnc2)c2ccc(Cl)cc2Cl)c(Cl)c1 (centres undefined) [MICONAZOLE],14.3 µM (inactive),13.5 µM (inactive),4.33 µM (inactive),8.09 µM (inactive),13.6 µM (inactive),11.2 µM (inactive),13.7 µM (inactive),13.4 µM (inactive),6.1 µM (inactive),13.6 µM (inactive),16.2 µM (inactive),3.78 µM (inactive),7.33 µM (inactive),12.6 µM (inactive),3.66 µM (inactive),13.8 µM (inactive),12.2 µM (inactive),–,–,–
CC1(C)[C@H]2CC[C@@]13C(=O)N1C(=O)O[C@@H]([C@H]1Cl)C(Cl)(COCc1ccccc1)C(=O)OCCO[C@H]3C2 (some centres undefined),> 100 µM (inactive),> 100 µM (inactive),21 µM (inactive),38.5 µM (inactive),48.9 µM (inactive),> 100 µM (inactive),–,> 100 µM (inactive),59.4 µM (inactive),> 100 µM (inactive),85.5 µM (inactive),35.2 µM (inactive),70 µM (inactive),69.2 µM (inactive),24.3 µM (inactive),> 100 µM (inactive),54.2 µM (inactive),29.9 µM (inactive),35.6 µM (inactive),–
O=[N+]([O-])c1ccc(C(c2c[nH]c3ccccc23)c2c[nH]c3ccccc23)cc1,16.8 µM (inactive),13.5 µM (inactive),9.66 µM (inactive),0.309 µM (active),3.03 µM (inactive),8.85 µM (inactive),12.7 µM (inactive),15.7 µM (inactive),11 µM (inactive),–,7.31 µM (inactive),17.7 µM (inactive),14.3 µM (inactive),11.7 µM (inactive),6.61 µM (inactive),16.4 µM (inactive),1.94 µM (inactive),5.97 µM (inactive),11.5 µM (inactive),–
COc1ccc(-c2cc(-c3ccc(Nc4ccnc5cc(C(F)(F)F)ccc45)cc3)[nH]c(=O)c2C#N)cc1,–,–,> 100 µM (inactive),> 24 µM (inactive),> 100 µM (inactive),> 41.8 µM (inactive),> 43.6 µM (inactive),16.4 µM (inactive),> 100 µM (inactive),> 100 µM (inactive),> 50.6 µM (inactive),> 100 µM (inactive),14.1 µM (inactive),27.2 µM (inactive),33.8 µM (inactive),21 µM (inactive),> 100 µM (inactive),99.8 µM (inactive),> 33.2 µM (inactive),> 32.7 µM (inactive)
COc1ccc(-n2nnc3c(C#N)c(C)c(-c4ccccc4)n3c2=O)cc1,2.29 µM (inactive),4.04 µM (inactive),0.455 µM (active),0.38 µM (active),> 47.4 µM (inactive),5.19 µM (inactive),> 43.2 µM (inactive),3.35 µM (inactive),2.84 µM (inactive),–,3.56 µM (inactive),–,1.94 µM (inactive),1.4 µM (inactive),–,2.04 µM (inactive),1.16 µM (inactive),2.81 µM (inactive),4.42 µM (inactive),2.2 µM (inactive)
Cc1ccc(S(=O)(=O)NNC(=O)Nc2ccc([N+](=O)[O-])cc2)cc1,–,27.9 µM (inactive),46.3 µM (inactive),45.3 µM (inactive),46.5 µM (inactive),67.6 µM (inactive),67.3 µM (inactive),69.5 µM (inactive),27.4 µM (inactive),65.8 µM (inactive),> 100 µM (inactive),36.1 µM (inactive),24.9 µM (inactive),89.5 µM (inactive),38.4 µM (inactive),50.7 µM (inactive),19.6 µM (inactive),29 µM (inactive),43.5 µM (inactive),> 100 µM (inactive)
COc1cc(OC)c(C/C=C/c2ccccc2)cc1O,–,–,11.8 µM (inactive),22.1 µM (inactive),23.6 µM (inactive),16.7 µM (inactive),16.4 µM (inactive),15.9 µM (inactive),14.5 µM (inactive),21.5 µM (inactive),19.4 µM (inactive),19.3 µM (inactive),18.2 µM (inactive),19 µM (inactive),14.4 µM (inactive),16.2 µM (inactive),14.7 µM (inactive),15.8 µM (inactive),17.7 µM (inactive),–
